{"source": "patent US9562024B2", "about": "“Vortioxetine salt and crystal thereof, their preparation method, pharmaceutical compositions and usage” (HANGZHOU PUSHAI PHARMACEUTICAL TECHNOLOGY CO., LTD, priority 2013, dated 2017)", "format_in_all_cases": "physicochemical", "key": {"[1]": {"assay": "Inventors' studies of the known crystalline forms of vortioxetine hydrobromide of WO2007/144005A1", "excerpt": "In studies, the inventors of the present invention found out that the multiple crystalline forms of vortioxetine hydrobromide disclosed in WO2007/144005A1 have the following disadvantages: […]"}, "[2]": {"assay": "Stability competition test (competitive slurry, XRPD)", "settings": "for Stability Competition Test: crystalline form after competitive slurry (XRPD): equal quantities of both forms slurried 7 days in ethanol or water; for Stability competition test: crystalline form after slurry: slurried in water or ethanol", "experimental": "Stability competition test: An equal quantity (250 mg) of the crystalline vortioxetine hemihydrobromide form of the present invention prepared in example 4 and the β Form of vortioxetine hydrobromide prepared in preparation example 2 were respectively added to 3 mL of ethanol or water to produce suspensions. No solvate was formed in ethanol or water. The suspensions were slurried for 7 days at room temperature or at 60° C., and then XRPD characterization analyses were performed."}, "[3]": {"assay": "Hygroscopicity comparison (DVS isothermal sorption)", "settings": "relative humidity range 20%-80%", "experimental": "Dynamic vapor sorption (DVS) data were collected using TA Instruments Q5000 TGA. The instrument control software was Thermal Advantage, and the analytical software was Universal Analysis. Usually, 1-10 mg of the sample was placed in a platinum pan and the weight change of the sample during experiments was recorded. The relative humidity was usually programmed to change from 20% to 80% and then back to 20%, and an isothermal sorption curve could be generated. Depending on specific situations, different sorption and desorption procedures might be used.\nHygroscopicity comparison: DVS isothermal sorption curves were used, and weight changes within the 20%-80% RH range were measured."}, "[4]": {"assay": "Dissolution comparison of sustained-release tablets, Example 144", "settings": "water, 37° C.", "experimental": "The crystalline form of vortioxetine hemihydrobromide of the present invention and the β Form of vortioxetine hydrobromide prepared in preparation example 2 were tableted by the method of example 141 and then subjected to dissolution comparison. Water was used as the dissolution medium. Parameter setting of the dissolution tester: The temperature was 37° C. The rotate speed of the stirring paddle was 50 r/min. Take 3 ml of the dissolution medium out at 0.5, 1, 2, 6 and 12 hours respectively. Each time after sampling, 3 mL of water was added back to the dissolution medium to supplement the volume. The concentration of the dissolution medium at each time point was determined by HPLC."}, "[5]": {"assay": "Dissolution of tablets (paddle method, water), Example 140", "settings": "37° C.", "experimental": "The crystalline form of vortioxetine hemihydrobromide of the present invention, the β Form of vortioxetine hydrobromide prepared in preparation example 2 and the β Form of vortioxetine hydrobromide containing 20% of the crystalline form of vortioxetine hemihydrobromide of the present invention were tableted by the method in example 105 and then subjected to phase stability comparison. Dissolution was determined by reference to the dissolution conditions of Benorilate Tablets described in 2010 Chinese Pharmacopoeia. The paddle method was used with the paddle rotation speed at 50 r/min. 900 mL of water was the dissolution medium. The temperature was 37° C. Take 3 mL of the dissolution medium for sampling at 2, 10, 20, 40 and 60 min respectively. Each time after sampling, 3 mL of water was added back to dissolution medium to supplement the volume. The concentration of the dissolution medium at each time point was measured by HPLC, and the dissolution profile was plotted."}, "[6]": {"settings": "high-temperature conditions, hydrobromide"}}, "note": "Counter-ions that a name gives are not always drawn."}
{"smiles": "Cc1ccc(Sc2ccccc2N2CCNCC2)c(C)c1", "note": "[ethyl acetate solvate of vortioxetine hydrobromide]", "values": [{"measurement": "Stability of the crystalline form", "setting": "[1]; high-humidity conditions", "value": "transformed to hydrate"}, {"measurement": "Stability of the crystalline form", "setting": "[1]; [6]", "value": "lost ethyl acetate"}]}
{"smiles": "Cc1ccc(Sc2ccccc2N2CCNCC2)c(C)c1", "note": "[hydrate of vortioxetine hydrobromide, vortioxetine hydrobromide]", "values": [{"measurement": "Stability of the crystalline form", "setting": "[1]; [6]", "value": "lost water"}]}
{"smiles": "Cc1ccc(Sc2ccccc2N2CCNCC2)c(C)c1", "note": "[the β Form of vortioxetine hydrobromide, 1-[2-(2,4-dimethylphenylsulfanyl)phenyl]piperazine hydrobromide]", "values": [{"measurement": "Stability Competition Test: crystalline form after competitive slurry (XRPD)", "setting": "[2]; 60° C., listed as the known β Form of vortioxetine hydrobromide, hydrobromide", "value": "completely transformed into the vortioxetine hemihydrobromide crystalline form of the present invention"}, {"measurement": "Stability Competition Test: crystalline form after competitive slurry (XRPD)", "setting": "[2]; room temperature, listed as the known β Form of vortioxetine hydrobromide, hydrobromide", "value": "completely transformed into the vortioxetine hemihydrobromide crystalline form of the present invention"}, {"measurement": "Stability competition test: crystalline form after slurry", "setting": "[2]; temperature not stated at the place, hydrobromide", "value": "transformed to the vortioxetine hemihydrobromide crystalline form of the present invention"}, {"measurement": "Stability competition test: crystalline form after slurry", "setting": "[2]; temperature not stated at the place, listed as β Form of vortioxetine hydrobromide, hydrobromide", "value": "failed to maintain its original crystalline form"}, {"measurement": "Stability competition test: crystalline form after slurry", "setting": "[2]; temperature not stated, listed as the known β Form of vortioxetine hydrobromide, hydrobromide", "value": "completely transformed to the crystalline vortioxetine hemihydrobromide of the present invention"}, {"measurement": "Hygroscopicity Comparison (weight change)", "setting": "[3]; listed as the known β Form of vortioxetine hydrobromide, hydrobromide", "value": 0.60, "unit": "%"}, {"measurement": "Cumulative dissolution", "setting": "[4]; sustained-release tablets by method of example 141, paddle 50 r/min, 0.5 hours, hydrobromide", "value": 50.0, "unit": "%"}, {"measurement": "Cumulative dissolution", "setting": "[4]; sustained-release tablets, 12 hours, hydrobromide", "value": 100.0, "unit": "%"}]}
{"smiles": "Cc1ccc(Sc2ccccc2N2CCNCC2)c(C)c1", "note": "[vortioxetine hemihydrobromide]", "values": [{"measurement": "Stability Competition Test: crystalline form after competitive slurry (XRPD)", "setting": "[2]; 60° C., listed as the vortioxetine hemihydrobromide crystalline form of the present invention, hemihydrobromide", "value": "kept unchanged"}, {"measurement": "Stability Competition Test: crystalline form after competitive slurry (XRPD)", "setting": "[2]; room temperature, listed as the vortioxetine hemihydrobromide crystalline form of the present invention, hemihydrobromide", "value": "invention kept unchanged”"}, {"measurement": "Stability competition test: crystalline form after slurry", "setting": "[2]; temperature not stated, hemihydrobromide", "value": "keeping its crystalline form unchanged"}, {"measurement": "Hygroscopicity Comparison (weight change)", "setting": "[3]; listed as Example 4, hemihydrobromide", "value": 0.28, "unit": "%"}, {"measurement": "Hygroscopicity Comparison (weight change)", "setting": "[3]; listed as the vortioxetine hemihydrobromide crystalline form of the present invention, hemihydrobromide", "value": 0.28, "unit": "%"}, {"measurement": "Cumulative dissolution", "setting": "[5]; tablets by method of example 105, 900 mL water, paddle 50 r/min, 2 min, hemihydrobromide", "value": 8.2, "unit": "%"}, {"measurement": "Cumulative dissolution", "setting": "[5]; tablets, water, 60 min", "value": 100.0, "unit": "%"}, {"measurement": "Cumulative dissolution", "setting": "[4]; sustained-release tablets by method of example 141, paddle 50 r/min, 0.5 hours, hemihydrobromide", "value": 8.1, "unit": "%"}]}
{"smiles": "Cc1ccc(Sc2ccccc2N2CCNCC2)c(C)c1", "note": "[α Form of vortioxetine hydrobromide, vortioxetine hydrobromide]", "values": [{"measurement": "Stability of the crystalline form", "setting": "[1]; room temperature", "value": "transformed to the β Form of vortioxetine hydrobromide"}]}
